The target of the experiment is mu-opioid receptor (Homo sapiens, UniProt P35372). As to the kind of experiment: biochemical. The settings on record: class symbols; read-out: GTP Activity.
mu-opioid receptor, sequence (P35372 whole entry, species assumed): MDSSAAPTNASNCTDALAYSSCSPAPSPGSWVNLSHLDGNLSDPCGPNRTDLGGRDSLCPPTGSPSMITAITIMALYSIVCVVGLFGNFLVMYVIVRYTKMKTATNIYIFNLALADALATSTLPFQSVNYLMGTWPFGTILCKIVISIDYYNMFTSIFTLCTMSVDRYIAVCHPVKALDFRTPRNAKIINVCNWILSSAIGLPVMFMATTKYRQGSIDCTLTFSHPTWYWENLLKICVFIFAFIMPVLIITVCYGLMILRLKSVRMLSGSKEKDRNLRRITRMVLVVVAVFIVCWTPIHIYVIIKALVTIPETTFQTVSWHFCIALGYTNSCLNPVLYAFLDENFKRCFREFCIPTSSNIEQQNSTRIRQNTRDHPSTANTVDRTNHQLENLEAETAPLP

Consider `COc1cc(OC)cc(N2CC(=O)C(c3nc4c(C)cccc4[nH]3)=C2N)c1` [compound 5], for which the EC50 fell in the range of 1 to 10 µM.
Then `COc1cc(OC)cc(N2CC(=O)C(c3nc4cc(C)ccc4[nH]3)=C2N)c1` [compound 6], with 1 to 10 µM; and `COc1cc(OC)cc(N2CC(=O)C(c3nc4cc(OC)ccc4[nH]3)=C2N)c1` [compound 7], with 1 to 10 µM; and `COc1cc(OC)cc(N2CC(=O)C(c3nc4c(F)cccc4[nH]3)=C2N)c1` [compound 11], with 1 to 10 µM.
With `Cc1cc(C)cc(N2CC(=O)C(c3nc4c(C)cccc4[nH]3)=C2N)c1` [compound 14], the EC50 was 1 to 10 µM.
On to `Cc1ccc(C)c(N2CC(=O)C(c3nc4cc(C)ccc4[nH]3)=C2N)c1` [compound 15], for which the EC50 is 1 to 10 µM.
For `COc1ccc(OC)c(N2CC(=O)C(c3nc4c(C)cccc4[nH]3)=C2N)c1` [compound 16], the EC50 fell in the range of 1 to 10 µM.
`Cc1ccc(C)c(N2CC(=O)C(c3nc4c(C)cccc4[nH]3)=C2N)c1` [compound 17]: the EC50 was 1 to 10 µM.
`COc1cc(OC)cc(N2CC(=O)C(c3cn4ccccc4n3)=C2N)c1` [compound 41]: the EC50 lay in the range of 1 to 10 µM.
As for `CC(C)(C)Oc1ccccc1N1CC(=O)C(c2nc3ccccc3[nH]2)=C1N` [compound 45], the EC50 fell in the range of 1 to 10 µM.
On to `NC1=C(c2nc3ccccc3[nH]2)C(=O)CN1c1ccccc1Oc1ccccc1` [compound 46], for which the EC50 was 1 to 10 µM.
Take `CC(C)(C)c1ccccc1N1CC(=O)C(c2nc3ccccc3[nH]2)=C1N` [compound 48]: the EC50 was 1 to 10 µM.
For `CCC1(C)C(=O)C(c2nc3ccccc3[nH]2)=C(N)N1c1cc(OC)cc(OC)c1` (stereo not shown) [compound 53], the EC50 is 0.1 to 1 µM.
Turning to `COc1cc(OC)cc(N2C(N)=C(c3nc4ccccc4[nH]3)C(=O)C2O)c1` (stereo not shown) [compound 57], the EC50 was 0.1 to 1 µM.
With `COc1cc(OC)cc(-n2nc(N)c(-c3nc4ccccc4[nH]3)c2N)c1` [compound 66], the EC50 lay in the range of 0.1 to 1 µM.
To `COc1cc(OC)cc(N2C(N)=C(c3nc4ccccc4[nH]3)C(=O)C2CO)c1` (stereo not shown) [compound 67] belongs 1 to 10 µM; to `COCC1C(=O)C(c2nc3ccccc3[nH]2)=C(N)N1c1cc(OC)cc(OC)c1` (stereo not shown) [compound 68], 0.1 to 1 µM.
Then `COCCC1C(=O)C(c2nc3ccccc3[nH]2)=C(N)N1c1cc(OC)cc(OC)c1` (stereo not shown) [compound 69], with 0.1 to 1 µM; and `COc1cc(OC)cc(N2C(N)=C(c3nc4ccccc4[nH]3)C(=O)C2CN)c1` (stereo not shown) [compound 70], with 0.1 to 1 µM.
To `COc1cc(OC)cc(-n2c(=O)c(-c3nc4ccccc4[nH]3)c(N)n2C(C)C)c1` [compound 74] belongs 1 to 10 µM.
Take `CNC1=C(c2nc3ccccc3n2C)C(=O)C(C)(C)N1c1cc(OC)cc(OC)c1` [compound 81]: the EC50 lay in the range of 0.1 to 1 µM.
To `COc1cc(OC)cc(N2C(N)=C(c3nc4ccccc4[nH]3)C(=O)[C@@H]2C)c1` [compound 83] belongs 1 to 10 µM; to `CC[C@]1(C)C(=O)C(c2nc3ccccc3[nH]2)=C(N)N1c1cc(OC)cc(OC)c1` [compound 84], 0.1 to 1 µM; to `CC[C@@]1(C)C(=O)C(c2nc3ccccc3[nH]2)=C(N)N1c1cc(OC)cc(OC)c1` [compound 85], 0.1 to 1 µM.
For the compound `COc1cc(OC)cc(-n2c(N)c(-c3nc4ccccc4[nH]3)c(=O)n2C)c1` [compound 86], the EC50 is 0.1 to 1 µM.
Turning to `COCCNC1=C(c2nc3ccccc3[nH]2)C(=O)C(C)(C)N1c1cc(OC)cc(OC)c1` [compound 91], the EC50 is 1 to 10 µM.
Regarding `CC[C@@H]1C(=O)C(c2nc3ccccc3[nH]2)=C(N)N1c1cc(OC)cc(OC)c1` [compound 97], the EC50 lay in the range of 1 to 10 µM.
In the case of `Cc1ccc(N2C(N)=C(c3nc4ccccc4[nH]3)C(=O)C2(C)C)c(C)c1` [compound 101], the EC50 lay in the range of 0.1 to 1 µM.
As for `Cc1cc(C)cc(N2C(N)=C(c3nc4ccccc4[nH]3)C(=O)C2(C)C)c1` [compound 102], the EC50 was 0.1 to 1 µM.
`CNC1=C(c2nc3ccccc3[nH]2)C(=O)C(C)(C)N1c1ccc(C)cc1C` [compound 104]: the EC50 was in the range of 1 to 10 µM.
For `CNC1=C(c2nc3ccccc3[nH]2)C(=O)C(C)(C)N1c1cc(C)cc(C)c1` [compound 105], the EC50 lay in the range of 0.1 to 1 µM.
`COc1cc(OC)cc(N2C(N)=C(c3nc4ccccc4[nH]3)C(=O)[C@@H]2c2ccccc2)c1` [compound 106]: the EC50 was in the range of 1 to 10 µM.
Then `COc1cc(OC)cc(N2C(N)=C(c3nc4ccccc4[nH]3)C(=O)C23CCC3)c1` [compound 108], with less than 0.1 µM; and `COc1cc(OC)cc(-n2c(N)c(-c3nc4ccccc4[nH]3)c(=N)n2C)c1` [compound 110], with 0.1 to 1 µM; and `COc1cc(OC)cc(N2C(N)=C(c3nc4ccccc4[nH]3)C(=O)C2(C)O)c1` (stereo not shown) [compound 112], with 0.1 to 1 µM.
Then `CCC1(O)C(=O)C(c2nc3ccccc3[nH]2)=C(N)N1c1cc(OC)cc(OC)c1` (stereo not shown) [compound 113], with 0.1 to 1 µM.
On to `CNC1=C(c2nc3ccccc3[nH]2)C(=O)C(C)(O)N1c1cc(OC)cc(OC)c1` (stereo not shown) [compound 114], for which the EC50 lay in the range of 0.1 to 1 µM.
As for `CCC1(O)C(=O)C(c2nc3ccccc3[nH]2)=C(NC)N1c1cc(OC)cc(OC)c1` (stereo not shown) [compound 115], the EC50 fell in the range of 0.1 to 1 µM.
On to `COc1cc(OC)cc(N2C(N)=C(c3nc4ccccc4[nH]3)C(=O)C2(C)OC)c1` (stereo not shown) [compound 119], for which the EC50 was in the range of 1 to 10 µM.
On to `CNC1=C(c2nc3ccccc3[nH]2)C(=O)C(C)(OC)N1c1cc(OC)cc(OC)c1` (stereo not shown) [compound 120], for which the EC50 lay in the range of 0.1 to 1 µM.
To `C=CCNC1=C(c2nc3ccccc3[nH]2)C(=O)C(C)(C)N1c1cc(OC)cc(OC)c1` [compound 122] belongs 0.1 to 1 µM.
Turning to `COc1cc(OC)cc(N2C(NCC3CC3)=C(c3nc4ccccc4[nH]3)C(=O)C2(C)C)c1` [compound 125], the EC50 was in the range of 1 to 10 µM.
In the case of `COc1cc(OC)cc(N2C(Nc3ccccc3)=C(c3nc4ccccc4[nH]3)C(=O)C2(C)C)c1` [compound 126], the EC50 is 1 to 10 µM.
`CNC1=C(c2nc3ccccc3[nH]2)C(=O)C(C)(C)N1c1cc(O)cc(OC)c1` [compound 129]: the EC50 is 0.1 to 1 µM.
With `COc1cc(OC)cc(N2C(N)=C(c3nc4ccccc4[nH]3)C(=O)C23CC3)c1` [compound 131], the EC50 fell in the range of 1 to 10 µM.
`COc1cc(OC)cc(N2C(N)=C(c3nc4ccccc4[nH]3)C(=O)C2(C)CO)c1` (stereo not shown) [compound 133]: the EC50 lay within 0.1 to 1 µM.
Regarding `COC(=O)C1C(=O)C(c2nc3ccccc3[nH]2)=C(N)N1c1cc(OC)cc(OC)c1` (stereo not shown) [compound 134], the EC50 lay in the range of 1 to 10 µM.
For the compound `[2H]C([2H])([2H])Oc1cc(OC([2H])([2H])[2H])cc(N2C(N)=C(c3nc4ccccc4[nH]3)C(=O)C2(C)C)c1` [compound 135], the EC50 fell in the range of 0.1 to 1 µM.
Consider `CNc1c(-c2nc3ccccc3[nH]2)c(=O)n(C)n1-c1cc(OC)cc(OC)c1` [compound 140], for which the EC50 was less than 0.1 µM.
As for `COc1cc(OC)cc(-n2c(NO)c(-c3nc4ccccc4[nH]3)c(=O)n2C)c1` [compound 143], the EC50 is 1 to 10 µM.
Consider `COc1cc(OC)cc(N2C(N3CCCC3)=C(c3nc4ccccc4[nH]3)C(=O)C2(C)C)c1` [compound 144], for which the EC50 was in the range of 1 to 10 µM.
With `CCc1cc(OC)cc(N2C(N)=C(c3nc4ccccc4[nH]3)C(=O)C2(C)C)c1` [compound 155], the EC50 lay within 0.1 to 1 µM.
To `CCc1cc(CC)cc(N2C(N)=C(c3nc4ccccc4[nH]3)C(=O)C2(C)C)c1` [compound 156] belongs 0.1 to 1 µM; to `CCOc1cc(OC)cc(N2C(N)=C(c3nc4ccccc4[nH]3)C(=O)C2(C)C)c1` [compound 157], 0.1 to 1 µM; to `CCOc1cc(OCC)cc(N2C(N)=C(c3nc4ccccc4[nH]3)C(=O)C2(C)C)c1` [compound 158], 1 to 10 µM.
Consider `CC1(C)C(=O)C(c2nc3ccccc3[nH]2)=C(N)N1c1cc(Cl)cc(Cl)c1` [compound 159], for which the EC50 is 1 to 10 µM.
To `COc1cccc(N2C(N)=C(c3nc4ccccc4[nH]3)C(=O)C2(C)C)c1` [compound 163] belongs 1 to 10 µM.
To `CN(C)c1cccc(N2C(N)=C(c3nc4ccccc4[nH]3)C(=O)C2(C)C)c1` [compound 164] belongs 1 to 10 µM; to `COc1ccc(OC)c(N2C(N)=C(c3nc4ccccc4[nH]3)C(=O)C2(C)C)c1` [compound 165], 1 to 10 µM; to `COc1cc(OC)cc(N2CC(=O)C(c3nc4cscc4[nH]3)=C2N)c1` [compound 173], 1 to 10 µM.
As to `[2H]C([2H])([2H])Oc1cc(OC([2H])([2H])[2H])cc(N2C(NC)=C(c3nc4ccccc4[nH]3)C(=O)C2(C)C)c1` [compound 175], the EC50 was less than 0.1 µM.
On to `C=C1C(=O)C(c2nc3ccccc3[nH]2)=C(N)N1c1cc(OC)cc(OC)c1` [compound 177], for which the EC50 was in the range of 0.1 to 1 µM.
Take `COc1cc(OC)cc(N2C(N)=C(c3nc4ccccc4[nH]3)C(=O)C23CCNC3)c1` (stereo not shown) [compound 182]: the EC50 lay within 0.1 to 1 µM.
Regarding `COc1cc(OC)cc(N2C(N)=C(c3nc4ccccc4[nH]3)C(=O)C23CCN(C)C3)c1` (stereo not shown) [compound 183], the EC50 lay in the range of 1 to 10 µM.
Consider `CC[C@@H]1C(=O)C(c2nc3ccccc3[nH]2)=C(NC)N1c1cc(OC)cc(OC)c1` [compound 184], for which the EC50 lay within 0.1 to 1 µM.
Take `CCNC1=C(c2nc3ccccc3[nH]2)C(=O)[C@@H](CC)N1c1cc(OC)cc(OC)c1` [compound 186]: the EC50 was 0.1 to 1 µM.
To `COc1cc(OC)cc(N2C(N)=C(c3nc4ccccc4[nH]3)C(=O)C23CNC3)c1` [compound 189] belongs 1 to 10 µM.
Turning to `COc1cc(OC)cc(N2C(N)=C(c3nc4ccccc4[nH]3)C(=O)C23CN(C)C3)c1` [compound 190], the EC50 was in the range of 1 to 10 µM.
For `COc1cc(OC)cc(N2C(N)=C(c3nc4ccccc4[nH]3)C(=O)C23COC3)c1` [compound 191], the EC50 is 0.1 to 1 µM.
Regarding `CNC1=C(c2nc3ccccc3[nH]2)C(=O)C2(CNC2)N1c1cc(OC)cc(OC)c1` [compound 192], the EC50 lay in the range of 0.1 to 1 µM.
To `CNC1=C(c2nc3ccccc3[nH]2)C(=O)C2(CN(C)C2)N1c1cc(OC)cc(OC)c1` [compound 193] belongs 0.1 to 1 µM; to `CNC1=C(c2nc3ccccc3[nH]2)C(=O)C2(COC2)N1c1cc(OC)cc(OC)c1` [compound 194], less than 0.1 µM.
Then `COc1cc(OC)cc(-n2nc(Nc3ccccc3)c(-c3nc4ccccc4[nH]3)c2O)c1` [compound 197], with 1 to 10 µM.

Source of the values: US9580409B2, “Modulators of opioid receptors and methods of use thereof” (priority 2011, dated 2017).
